Data taken from patent US20250129121A1, “POLYPEPTIDE, PRODUCT INCLUDING POLYPEPTIDE FOR INHIBITING FUSOBACTERIUM NUCLEATUM, OR DRUG FOR PREVENTING COLORECTAL CANCER” (priority 2022, published 2025).
Converted amounts (≈) assume the structure as drawn. Where a SMILES comes first, the peptide text is derived from it.

Experiments:
[1] = tested on: Lactobacillus rhamnosus 6141; format: cell-based; conditions: 20 h
Method: (§1) A. Each polypeptide was prepared into a specified stock solution for later use. Minimum inhibitory concentrations (MICs) of the polypeptides P1 to P12 were determined by a broth microdilution method. With 0.01% acetic acid (including 0.2% of bovine serum albumin (BSA)) as a diluent, a series of gradient antimicrobial peptide solutions were prepared by a two-fold dilution method.
(§2) B. 100 μL of each polypeptide stock solution was taken and added to a 96-well cell culture plate, and then each strain solution to be tested (about 10^5/mL) was added in an equal volume to each well. A positive control (including a strain solution, but not including a polypeptide) and a negative control (including neither a strain solution nor a polypeptide). Strains to be tested include Escherichia coli Nissile 1917, Vibrio cholerae H1, Pseudomonas aeruginosa PAO1, F. nucleatum 25586, F. nucleatum 10953, Bifidobacterium uniformis 6597, Lactobacillus acidophilus 6075, Bifidobacterium longum 6194Lactobacillus rhamnosus 6141, and Streptococcus agalactiae H94.
(§3) C. The cell culture plate was incubated at a constant temperature of 37° C. for 20 h, and MIC was recorded when the turbidity was not observed by naked eyes at a bottom of a well. The strains all were purchased from the market.

[2] = tested on: Bifidobacterium uniformis 6597; format: cell-based; conditions: 20 h
Method: as §1, §2, §3

[3] = tested on: Escherichia coli Nissile 1917; format: cell-based; conditions: Nissile 1917, 20 h
Method: as §1, §2, §3

[4] = tested on: Lactobacillus acidophilus 6075; format: cell-based; conditions: 20 h
Method: as §1, §2, §3

[5] = tested on: Pseudomonas aeruginosa PAO1; format: cell-based; conditions: PAO1, 20 h
Method: as §1, §2, §3

[6] = tested on: Streptococcus agalactiae H94; format: cell-based; conditions: H94, 20 h
Method: as §1, §2, §3

[7] = tested on: Bifidobacterium longum 6194; format: cell-based; conditions: 20 h
Method: as §1, §2, §3

F. nucleatum 10953 = format: cell-based, Fusobacterium nucleatum; conditions: 10953, 20 h
Method: as §1, §2, §3

F. nucleatum 25586 = format: cell-based, Fusobacterium nucleatum; conditions: 25586, 20 h
Method: as §1, §2, §3

Row | SMILES | MIC Lactobacterium rhamnosus 6141 [1] [µM] | MIC Bifidobacteriu muniformis 6597 [2] [µM] | MIC Escherichia coli nissile1917 [3] [µM] | MIC Lactobacillus acidophilus 6075 [4] [µM] | MIC Pseudomonas aeruginosa PAO1 [5] [µM] | MIC Streptococcus agalactiae H94 [6] [µM] | MIC Bifidobacterium longum 6194 [7] [µM] | MIC Fusobacterium nucleatum 10953 (F. nucleatum 10953) [µM] | MIC Fusobacterium nucleatum 25586 (F. nucleatum 25586) [µM]
1 | N=C(N)NCCC[C@H](NC(=O)CNC(=O)[C@@H]1CCCN1C(=O)[C@H](CCCNC(=N)N)NC(=O)[C@H](Cc1c[nH]c2ccccc12)NC(=O)[C@H](CCC(=O)O)NC(=O)[C@@H](N)Cc1c[nH]c2ccccc12)C(=O)N[C@@H](Cc1c[nH]c2ccccc12)C(=O)N[C@@H](CCC(=O)O)C(=O)N[C@@H](Cc1c[nH]c2ccccc12)C(=O)O [P1, WEWRPGRWEW] (H-WEWRPGRWEW-OH; N-terminus assumed) | >64 | >64 | >64 | >64 | >64 | >64 | >64 | >64 | >64
2 | N=C(N)NCCC[C@H](NC(=O)CNC(=O)[C@@H]1CCCN1C(=O)[C@H](CCCNC(=N)N)NC(=O)[C@H](Cc1c[nH]c2ccccc12)NC(=O)[C@H](CC(=O)O)NC(=O)[C@H](Cc1c[nH]c2ccccc12)NC(=O)[C@H](CCCNC(=N)N)NC(=O)[C@H](Cc1c[nH]c2ccccc12)NC(=O)[C@H](CC(=O)O)NC(=O)[C@@H](N)Cc1c[nH]c2ccccc12)C(=O)N[C@@H](Cc1c[nH]c2ccccc12)C(=O)N[C@@H](CC(=O)O)C(=O)N[C@@H](Cc1c[nH]c2ccccc12)C(=O)N[C@@H](CCCNC(=N)N)C(=O)N[C@@H](Cc1c[nH]c2ccccc12)C(=O)N[C@@H](CC(=O)O)C(=O)N[C@@H](Cc1c[nH]c2ccccc12)C(=O)O [P5, WDWRWDWRPGRWDWRWDW] (H-WDWRWDWRPGRWDWRWDW-OH; N-terminus assumed) | >64 | >64 | 64 (≈ 176 µg/mL) | >64 | >64 | >64 | >64 | >64 | >64
3 | N=C(N)NCCC[C@H](NC(=O)CNC(=O)[C@@H]1CCCN1C(=O)[C@H](CCCNC(=N)N)NC(=O)[C@H](Cc1c[nH]c2ccccc12)NC(=O)[C@H](CCC(=O)O)NC(=O)[C@H](Cc1c[nH]c2ccccc12)NC(=O)[C@H](CCCNC(=N)N)NC(=O)[C@H](Cc1c[nH]c2ccccc12)NC(=O)[C@H](CCC(=O)O)NC(=O)[C@@H](N)Cc1c[nH]c2ccccc12)C(=O)N[C@@H](Cc1c[nH]c2ccccc12)C(=O)N[C@@H](CCC(=O)O)C(=O)N[C@@H](Cc1c[nH]c2ccccc12)C(=O)N[C@@H](CCCNC(=N)N)C(=O)N[C@@H](Cc1c[nH]c2ccccc12)C(=O)N[C@@H](CCC(=O)O)C(=O)N[C@@H](Cc1c[nH]c2ccccc12)C(=O)O [P2, WEWRWEWRPGRWEWRWEW] (H-WEWRWEWRPGRWEWRWEW-OH; N-terminus assumed) | >64 | >64 | >64 | >64 | >64 | >64 | >64 | >64 | >64
4 | N=C(N)NCCC[C@H](NC(=O)CNC(=O)[C@@H]1CCCN1C(=O)[C@H](CCCNC(=N)N)NC(=O)[C@H](Cc1c[nH]c2ccccc12)NC(=O)[C@H](CCC(=O)O)NC(=O)[C@H](Cc1c[nH]c2ccccc12)NC(=O)[C@H](Cc1c[nH]c2ccccc12)NC(=O)[C@H](CCC(=O)O)NC(=O)[C@H](Cc1c[nH]c2ccccc12)NC(=O)[C@H](CCCNC(=N)N)NC(=O)CNC(=O)[C@@H]1CCCN1C(=O)[C@H](CCCNC(=N)N)NC(=O)[C@H](Cc1c[nH]c2ccccc12)NC(=O)[C@H](CCC(=O)O)NC(=O)[C@@H](N)Cc1c[nH]c2ccccc12)C(=O)N[C@@H](Cc1c[nH]c2ccccc12)C(=O)N[C@@H](CCC(=O)O)C(=O)N[C@@H](Cc1c[nH]c2ccccc12)C(=O)O [P3] (H-WEWRPGRWEWWEWRPGRWEW-OH; N-terminus assumed) | >64 | >64 | >64 | >64 | >64 | >64 | >64 | >64 | >64
5 | N=C(N)NCCC[C@H](NC(=O)CNC(=O)[C@@H]1CCCN1C(=O)[C@H](CCCNC(=N)N)NC(=O)[C@H](Cc1c[nH]c2ccccc12)NC(=O)[C@H](CCCCN)NC(=O)[C@@H](N)Cc1c[nH]c2ccccc12)C(=O)N[C@@H](Cc1c[nH]c2ccccc12)C(=O)N[C@@H](CCCCN)C(=O)N[C@@H](Cc1c[nH]c2ccccc12)C(=O)O [P10, WKWRPGRWKW] (H-WKWRPGRWKW-OH; N-terminus assumed) | >64 | 64 (≈ 95.1 µg/mL) | 64 (≈ 95.1 µg/mL) | 64 (≈ 95.1 µg/mL) | >64 | >64 | >64 | 16 (≈ 23.8 µg/mL) | 8 (≈ 11.9 µg/mL)
6 | N=C(N)NCCC[C@H](NC(=O)CNC(=O)[C@@H]1CCCN1C(=O)[C@H](CCCNC(=N)N)NC(=O)[C@H](Cc1c[nH]c2ccccc12)NC(=O)[C@H](CC(=O)O)NC(=O)[C@H](Cc1c[nH]c2ccccc12)NC(=O)[C@H](Cc1c[nH]c2ccccc12)NC(=O)[C@H](CC(=O)O)NC(=O)[C@H](Cc1c[nH]c2ccccc12)NC(=O)[C@H](CCCNC(=N)N)NC(=O)CNC(=O)[C@@H]1CCCN1C(=O)[C@H](CCCNC(=N)N)NC(=O)[C@H](Cc1c[nH]c2ccccc12)NC(=O)[C@H](CC(=O)O)NC(=O)[C@@H](N)Cc1c[nH]c2ccccc12)C(=O)N[C@@H](Cc1c[nH]c2ccccc12)C(=O)N[C@@H](CC(=O)O)C(=O)N[C@@H](Cc1c[nH]c2ccccc12)C(=O)O [P6] (H-WDWRPGRWDWWDWRPGRWDW-OH; N-terminus assumed) | >64 | >64 | 64 (≈ 186 µg/mL) | >64 | >64 | >64 | >64 | 64 (≈ 186 µg/mL) | 64 (≈ 186 µg/mL)
7 | N=C(N)NCCC[C@H](NC(=O)CNC(=O)[C@@H]1CCCN1C(=O)[C@H](CCCNC(=N)N)NC(=O)[C@H](Cc1c[nH]c2ccccc12)NC(=O)[C@H](Cc1c[nH]cn1)NC(=O)[C@H](Cc1c[nH]c2ccccc12)NC(=O)[C@H](Cc1c[nH]c2ccccc12)NC(=O)[C@H](Cc1c[nH]cn1)NC(=O)[C@H](Cc1c[nH]c2ccccc12)NC(=O)[C@H](CCCNC(=N)N)NC(=O)CNC(=O)[C@@H]1CCCN1C(=O)[C@H](CCCNC(=N)N)NC(=O)[C@H](Cc1c[nH]c2ccccc12)NC(=O)[C@H](Cc1c[nH]cn1)NC(=O)[C@@H](N)Cc1c[nH]c2ccccc12)C(=O)N[C@@H](Cc1c[nH]c2ccccc12)C(=O)N[C@@H](Cc1c[nH]cn1)C(=O)N[C@@H](Cc1c[nH]c2ccccc12)C(=O)O [P9] (H-WHWRPGRWHWWHWRPGRWHW-OH; N-terminus assumed) | >64 | >64 | >64 | 64 (≈ 191 µg/mL) | >64 | >64 | 64 (≈ 191 µg/mL) | 64 (≈ 191 µg/mL) | 64 (≈ 191 µg/mL)
8 | N=C(N)NCCC[C@H](NC(=O)CNC(=O)[C@@H]1CCCN1C(=O)[C@H](CCCNC(=N)N)NC(=O)[C@H](Cc1c[nH]c2ccccc12)NC(=O)[C@H](CC(=O)O)NC(=O)[C@@H](N)Cc1c[nH]c2ccccc12)C(=O)N[C@@H](Cc1c[nH]c2ccccc12)C(=O)N[C@@H](CC(=O)O)C(=O)N[C@@H](Cc1c[nH]c2ccccc12)C(=O)O [P4, WDWRPGRWDW] (H-WDWRPGRWDW-OH; N-terminus assumed) | >64 | >64 | >64 | >64 | >64 | >64 | >64 | >64 | >64
